# Measured values: US20240246968A1, “SMALL MOLECULE INHIBITORS OF KRAS G12C MUTANT” (Merck Sharp & Dohme LLC, priority 2021, published 2024)
# What was measured:
# [1] = biological target: Gppcp-bound recombinant K-Ras4B G12C mutant protein (amino acids 1-169, C51S/C80L/C118S) (Homo sapiens, UniProt P01116, C118S/C51S/C80L/G12C); assay: KRASG12C binding assay (LC-MS, compound binding rate); settings: test compound final concentration 0.5 μM, 25° C., 1 hour
# Method in brief: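 Covalent adduct formation measured by deconvoluted intact-mass LC-MS after 1 h at 25 °C with compound at 0.5 μM final and 50 nM Gppcp-loaded KRAS G12C (residues 1-169, C51S/C80L/C118S). Buffer: TBS, 0.1 mM TCEP, 0.25 mM MgCl2, 50 μM Gppcp. Binding % = one-molecule adduct/(unbound + all adducts), binned A ≥80, B 60–80, C 40–60, D 20–40, E <20.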
# [2] = biological target: T1, interaction between recombinant K-Ras4B G12C mutant protein and cRAF RAS-binding domain (cRAF-RBD) (Homo sapiens, UniProt P01116, G12C); assay: Inhibitory activity on interaction between KRAS G12C and cRAF (Alpha technology); assay type: biochemical; settings: GMPPNP-bound KRAS G12C incubated with compound at 25° C. for 1 hour, then cRAF-RBD; Alpha signal
# T1 construct: made in house; host or cells: E. coli
# Method in brief: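 Alpha readout of cRAF-RBD (aa 50-132) binding to KRAS G12C (aa 1-169) after 1.5 h RT, following 1 h, 25° C compound preincubation with GMPPNP-bound protein (pH 7.5 Tris, 1 mM MgCl2, TCEP, Tween 20). IC50 fitted from titrations, with GDP-bound KRAS as 100% and DMSO as 0% inhibition.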
# MIA PaCa-2 cells = assay: Growth inhibition activity on KRAS-G12C mutant cell line (MIA PaCa-2), CellTiter-Glo 3D; assay type: cell-based, human; settings: Homo sapiens, MIA PaCa-2, 72 h, MIA PaCa-2, 3-day culture with compound
# Method in brief: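 Luminescence readout (CellTiter-Glo 3D) after 3 days of compound treatment at 37 °C, 5% CO2, 0.2% final DMSO, gave % growth inhibition versus no-compound wells, from which IC50 (nM) was derived; cells had been plated in 10% FBS RPMI1640 one day before dosing.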
SMILES,binding rate [1],IC50 [2],IC50 (MIA PaCa-2 cells)
"Cc1nc2cc(-c3cccn4c(C(=O)c5cc(F)c(NC(=O)/C=C/CNC6(CO)CCCCC6)c(F)c5)ccc34)c(C(F)(F)F)cc2n1C [Example 69, (E)-N-(4-(8-(1,2-dimethyl-6-(trifluoromethyl)-1H-benzo[d]imidazol-5-yl)indolizine-3-carbonyl)-2,6-difluorophenyl)-4-((1-(hydroxymethyl)cyclohexyl)amino)but-2-enamide]",A (A binding rate of 80% or more is rated “A”),87 nM,340 nM
"Cc1nc2cc(-c3cccn4c(C(=O)c5cc(F)c(NC(=O)/C=C/CNC6(CO)CCOCC6)c(F)c5)ccc34)c(C(F)(F)F)cc2n1C [Example 70, (E)-N-(4-(8-(1,2-dimethyl-6-(trifluoromethyl)-1H-benzo[d]imidazol-5-yl)indolizine-3-carbonyl)-2,6-difluorophenyl)-4-((4-(hydroxymethyl)tetrahydro-2H-pyran-4-yl)amino)but-2-enamide]",A (A binding rate of 80% or more is rated “A”),70 nM,210 nM
"Cc1nc2cc(-c3cccn4c(C(=O)c5cc(F)c(NC(=O)/C=C/CNC6CCN(C)C(=O)C6)c(F)c5)ccc34)c(C(F)(F)F)cc2n1C (stereo not drawn) [Example 72, (E)-N-(4-(8-(1,2-dimethyl-6-(trifluoromethyl)-1H-benzo[d]imidazol-5-yl)indolizine-3-carbonyl)-2,6-difluorophenyl)-4-((1-methyl-2-oxopiperidin-4-yl)amino)but-2-enamide]",A (A binding rate of 80% or more is rated “A”),89 nM,100 nM
"Cc1cc2c(nc(CC(N)=O)n2C)c(Cl)c1-c1cccn2c(C(=O)c3cc(F)c(NC(=O)/C=C/CNC(C)(C)C)c(F)c3)ccc12 [Example 73, (E)-N-(4-(8-(2-(2-amino-2-oxoethyl)-4-chloro-1,6-dimethyl-1H-benzo[d]imidazol-5-yl)indolizine-3-carbonyl)-2,6-difluorophenyl)-4-(tert-butylamino)but-2-enamide]",A (A binding rate of 80% or more is rated “A”),73 nM,300 nM
"Cc1cc2c(nc(CC#N)n2C)c(Cl)c1-c1cccn2c(C(=O)c3cc(F)c(NC(=O)/C=C/CNC(C)(C)C)c(F)c3)ccc12 [Example 74, (E)-4-(tert-butylamino)-N-(4-(8-(4-chloro-2-(cyanomethyl)-1,6-dimethyl-1H-benzo[d]imidazol-5-yl)indolizine-3-carbonyl)-2,6-difluorophenyl)but-2-enamide]",A (A binding rate of 80% or more is rated “A”),64 nM,65 nM
"CO[C@H]1CC[C@H](NC/C=C/C(=O)Nc2c(F)cc(C(=O)c3cc(I)c4c(-c5c(C)cc6c(nc(C)n6C)c5Cl)cccn34)cc2F)CC1 [Example 75, (E)-N-(4-(8-(4-chloro-1,2,6-trimethyl-1H-benzo[d]imidazol-5-yl)-1-iodoindolizine-3-carbonyl)-2,6-difluorophenyl)-4-(((1r,4r)-4-methoxycyclohexyl)amino)but-2-enamide]",A (A binding rate of 80% or more is rated “A”),37 nM,230 nM
"Cc1nc2cc(-c3cccn4c(C(=O)c5cc(F)c(NC(=O)/C=C/CNC(C)(C)CF)c(F)c5)ccc34)c(C(F)(F)F)cc2n1C [Example 76, (E)-N-(4-(8-(1,2-dimethyl-6-(trifluoromethyl)-1H-benzo[d]imidazol-5-yl)indolizine-3-carbonyl)-2,6-difluorophenyl)-4-((1-fluoro-2-methylpropan-2-yl)amino)but-2-enamide]",A (A binding rate of 80% or more is rated “A”),75 nM,300 nM
"Cc1nc2cc(-c3cccn4c(C(=O)c5cc(F)c(NC(=O)/C=C/CNC6CCOC6)c(F)c5)ccc34)c(C(F)(F)F)cc2n1C (stereo not drawn) [Example 77, (E)-N-(4-(8-(1,2-dimethyl-6-(trifluoromethyl)-1H-benzo[d]imidazol-5-yl)indolizine-3-carbonyl)-2,6-difluorophenyl)-4-((tetrahydrofuran-3-yl)amino)but-2-enamide]",A (A binding rate of 80% or more is rated “A”),42 nM,71 nM
"Cc1nc2cc(-c3cccn4c(C(=O)c5cc(F)c(NC(=O)/C=C/CNC6CCCOC6)c(F)c5)ccc34)c(C(F)(F)F)cc2n1C (stereo not drawn) [Example 78, (E)-N-(4-(8-(1,2-dimethyl-6-(trifluoromethyl)-1H-benzo[d]imidazol-5-yl)indolizine-3-carbonyl)-2,6-difluorophenyl)-4-((tetrahydro-2H-pyran-3-yl)amino)but-2-enamide]",A (A binding rate of 80% or more is rated “A”),51 nM,120 nM
"Cc1nc2cc(-c3cccn4c(C(=O)c5cc(F)c(NC(=O)/C=C/CNC6CC7CCC(C6)O7)c(F)c5)ccc34)c(C(F)(F)F)cc2n1C (stereo not drawn) [Example 79, (E)-4-((8-oxabicyclo[3.2.1]octan-3-yl)amino)-N-(4-(8-(1,2-dimethyl-6-(trifluoromethyl)-1H-benzo[d]imidazol-5-yl)indolizine-3-carbonyl)-2,6-difluorophenyl)but-2-enamide]",A (A binding rate of 80% or more is rated “A”),61 nM,110 nM
"Cc1nc2cc(-c3cccn4c(C(=O)c5cc(F)c(NC(=O)/C=C/CN[C@H]6CC[C@H](F)CC6)c(F)c5)ccc34)c(C(F)(F)F)cc2n1C [Example 80, (E)-N-(4-(8-(1,2-dimethyl-6-(trifluoromethyl)-1H-benzo[d]imidazol-5-yl)indolizine-3-carbonyl)-2,6-difluorophenyl)-4-(((1r,4r)-4-fluorocyclohexyl)amino)but-2-enamide]",A (A binding rate of 80% or more is rated “A”),59 nM,85 nM
Cc1nc2cc(-c3cccn4c(C(=O)c5cc(F)c(NC(=O)/C=C/CN[C@H]6CC[C@@H](F)CC6)c(F)c5)ccc34)c(C(F)(F)F)cc2n1C [Example 81],A (A binding rate of 80% or more is rated “A”),70 nM,71 nM
"Cc1cc2c(nc(CC(F)(F)F)n2C)c(Cl)c1-c1cccn2c(C(=O)c3cc(F)c(NC(=O)/C=C/CNC(C)(C)C)c(F)c3)ccc12 [Example 82, (E)-4-(tert-butylamino)-N-(4-(8-(4-chloro-1,6-dimethyl-2-(2,2,2-trifluoroethyl)-1H-benzo[d]imidazol-5-yl)indolizine-3-carbonyl)-2,6-difluorophenyl)but-2-enamide]",A (A binding rate of 80% or more is rated “A”),96 nM,260 nM
"Cc1nc2cc(-c3cccn4c(C(=O)c5cc(F)c(NC(=O)/C=C/CNC67CCC(F)(CC6)C7)c(F)c5)ccc34)c(C(F)(F)F)cc2n1C [Example 84, (E)-N-(4-(8-(1,2-dimethyl-6-(trifluoromethyl)-1H-benzo[d]imidazol-5-yl)indolizine-3-carbonyl)-2,6-difluorophenyl)-4-((4-fluorobicyclo[2.2.1]heptan-1-yl)amino)but-2-enamide]",A (A binding rate of 80% or more is rated “A”),91 nM,120 nM
